The data set is described as follows: Purity and stability test: samples sealed at 25° C. for 30 days, purity by HPLC. It counts as physicochemical. The following applies: for Purity of initial sample: before storage, HPLC purity (baseline of the stability test); for Purity of sample after stored at 25° C. for 30 days: sealed, HPLC purity. From the text:
High performance liquid chromatography (HPLC) is a common method for determining the purity of a compound, wherein a liquid is used as the mobile phase and a high-pressure transfusion system is used for pumping the mobile phase, such as single solvents with different polarities, a mixture of solvents at different proportions, or buffers, into a column packed with a stationary phase. Each component is separated in the column, and then enters into a detector for detection, thereby analyzing a sample. In the present invention, HPLC is used for determining the purity of the compound of formula I and studying the stability of a sample. The HPLC method is as follows:
Analysis Column: YMC-ODS 250×4.6 mm, 5 μm;
Mobile phase: acetonitrile:phosphate buffer (pH 3.0)=45:70;
Column temperature: 35° C.;
Diluent: aqueous phosphate buffer;
Detection wavelength: 210 nm;
In this Example, the purity and stability of the samples obtained in Comparative Examples and Examples were compared. The method used is as follows:
Crystals A-C of the compound of formula I prepared in Examples 2, 11 and 15, the crystal of B82 type obtained in Comparative Example 1 and the amorphous solid obtained in Example 1 were taken respectively and sealed at 25° C. for 30 days. And then the content of impurities in the sample was analyzed. Results of comparing the stability of crystals A-C of the compound of formula I according to the present invention, the crystal of B82 type and the amorphous solid are shown in the following table: […]

Structures are written as SMILES. Numbered stars: 1 amine (or outer) side, 2 acyl side, 3 side chain; on linkers, the order of the positions; unused ones are H or OH. Bridge positions count the residues as written; N and C are the ends. Square brackets hold non-standard residues; d marks the D form. Peptide text beside a SMILES is read from it. * marks the point of attachment. hTyr(3S-OH,4S-OH,3'-OSO3H) = N[C@H](C(=O)O)[C@H](O)[C@@H](O)c1ccc(O)c(OS(=O)(=O)O)c1; Orn(4R-OH,5R-OH) = O=C([C@H](C[C@@H](O)[C@@H](O)N[*:3])N[*:1])[*:2]; Pro(3S-OH,4S-Me) = C[C@H]1CN[C@H](C(=O)O)[C@H]1O; X1 = CCCCCOc1ccc(-c2cc(-c3ccc(C(=O)*)cc3)no2)cc1; Gln(3R-OH) = NC(=O)C[C@@H](O)[C@H](N)C(=O)O; Hyp = O=C(O)[C@@H]1C[C@@H](O)CN1

Consider `CCCCCOc1ccc(-c2cc(-c3ccc(C(=O)N[C@H]4C[C@@H](O)[C@@H](O)NC(=O)[C@@H]5[C@@H](O)[C@@H](C)CN5C(=O)[C@H]([C@H](O)CC(N)=O)NC(=O)[C@H]([C@H](O)[C@@H](O)c5ccc(O)c(OS(=O)(=O)[O-])c5)NC(=O)[C@@H]5C[C@@H](O)CN5C(=O)[C@H]([C@@H](C)O)NC4=O)cc3)no2)cc1.[Na+]` [Crystal A, Sodium 5-[(1S,2S)-2-[(3S,6S,9S,11R,15S,18S,20R,21R,24S,25S,26S)-3-[(R)-2-carbamoyl-1-hydroxyethyl]-11,20,21,25-tetrahydroxy-15-[(R)-1-hydroxyethyl]-26-methyl-2,5,8,14,17,23-hexaoxo-18-[4-[5-(4-pentoxyphenyl)isoxazol-3-yl]benzoylamino]-1,4,7,13,16,22-hexaazatricyclo[22.3.0.0^9,13]heptacosan-6-yl]-1,2-dihydroxyethyl]-2-hydroxy phenyl sulfate.] (X1-[Orn(4R-OH,5R-OH)]T[Hyp][hTyr(3S-OH,4S-OH,3'-OSO3H)][Gln(3R-OH)][Pro(3S-OH,4S-Me)]; lactam 1-C), for which the “Purity of initial sample” value amounted to 99.68% and the “Purity of sample after stored at 25° C. for 30 days” value (from here on “Purity of sample after stored”) is 99.65%. Further, for the setting “result in words”, the “stability compared with the B82-type crystal and the amorphous solid” value was “significantly superior than that of the crystal of B82 type”.
For the compound `CCCCCOc1ccc(-c2cc(-c3ccc(C(=O)N[C@H]4C[C@@H](O)[C@@H](O)NC(=O)[C@@H]5[C@@H](O)[C@@H](C)CN5C(=O)[C@H]([C@H](O)CC(N)=O)NC(=O)[C@H]([C@H](O)[C@@H](O)c5ccc(O)c(OS(=O)(=O)[O-])c5)NC(=O)[C@@H]5C[C@@H](O)CN5C(=O)[C@H]([C@@H](C)O)NC4=O)cc3)no2)cc1.[Na+]` [Crystal B, Sodium 5-[(1S,2S)-2-[(3S,6S,9S,11R,15S,18S,20R,21R,24S,25S,26S)-3-[(R)-2-carbamoyl-1-hydroxyethyl]-11,20,21,25-tetrahydroxy-15-[(R)-1-hydroxyethyl]-26-methyl-2,5,8,14,17,23-hexaoxo-18-[4-[5-(4-pentoxyphenyl)isoxazol-3-yl]benzoylamino]-1,4,7,13,16,22-hexaazatricyclo[22.3.0.0^9,13]heptacosan-6-yl]-1,2-dihydroxyethyl]-2-hydroxy phenyl sulfate.] (X1-[Orn(4R-OH,5R-OH)]T[Hyp][hTyr(3S-OH,4S-OH,3'-OSO3H)][Gln(3R-OH)][Pro(3S-OH,4S-Me)]; lactam 1-C), the “Purity of initial sample” value was 99.55% and the “Purity of sample after stored” value was 99.50%.
The matching figures for `CCCCCOc1ccc(-c2cc(-c3ccc(C(=O)N[C@H]4C[C@@H](O)[C@@H](O)NC(=O)[C@@H]5[C@@H](O)[C@@H](C)CN5C(=O)[C@H]([C@H](O)CC(N)=O)NC(=O)[C@H]([C@H](O)[C@@H](O)c5ccc(O)c(OS(=O)(=O)[O-])c5)NC(=O)[C@@H]5C[C@@H](O)CN5C(=O)[C@H]([C@@H](C)O)NC4=O)cc3)no2)cc1.[Na+]` [Crystal C, Sodium 5-[(1S,2S)-2-[(3S,6S,9S,11R,15S,18S,20R,21R,24S,25S,26S)-3-[(R)-2-carbamoyl-1-hydroxyethyl]-11,20,21,25-tetrahydroxy-15-[(R)-1-hydroxyethyl]-26-methyl-2,5,8,14,17,23-hexaoxo-18-[4-[5-(4-pentoxyphenyl)isoxazol-3-yl]benzoylamino]-1,4,7,13,16,22-hexaazatricyclo[22.3.0.0^9,13]heptacosan-6-yl]-1,2-dihydroxyethyl]-2-hydroxy phenyl sulfate.] (X1-[Orn(4R-OH,5R-OH)]T[Hyp][hTyr(3S-OH,4S-OH,3'-OSO3H)][Gln(3R-OH)][Pro(3S-OH,4S-Me)]; lactam 1-C): 99.64% and 99.43%.
Consider `CCCCCOc1ccc(-c2cc(-c3ccc(C(=O)N[C@H]4C[C@@H](O)[C@@H](O)NC(=O)[C@@H]5[C@@H](O)[C@@H](C)CN5C(=O)[C@H]([C@H](O)CC(N)=O)NC(=O)[C@H]([C@H](O)[C@@H](O)c5ccc(O)c(OS(=O)(=O)[O-])c5)NC(=O)[C@@H]5C[C@@H](O)CN5C(=O)[C@H]([C@@H](C)O)NC4=O)cc3)no2)cc1.[Na+]` [B82-type Crystal, Sodium 5-[(1S,2S)-2-[(3S,6S,9S,11R,15S,18S,20R,21R,24S,25S,26S)-3-[(R)-2-carbamoyl-1-hydroxyethyl]-11,20,21,25-tetrahydroxy-15-[(R)-1-hydroxyethyl]-26-methyl-2,5,8,14,17,23-hexaoxo-18-[4-[5-(4-pentoxyphenyl)isoxazol-3-yl]benzoylamino]-1,4,7,13,16,22-hexaazatricyclo[22.3.0.0^9,13]heptacosan-6-yl]-1,2-dihydroxyethyl]-2-hydroxy phenyl sulfate., reference compound] (X1-[Orn(4R-OH,5R-OH)]T[Hyp][hTyr(3S-OH,4S-OH,3'-OSO3H)][Gln(3R-OH)][Pro(3S-OH,4S-Me)]; lactam 1-C), for which the “Purity of initial sample” value was 99.50% and the “Purity of sample after stored” value turned out to be 96.98%.
The matching figures for `CCCCCOc1ccc(-c2cc(-c3ccc(C(=O)N[C@H]4C[C@@H](O)[C@@H](O)NC(=O)[C@@H]5[C@@H](O)[C@@H](C)CN5C(=O)[C@H]([C@H](O)CC(N)=O)NC(=O)[C@H]([C@H](O)[C@@H](O)c5ccc(O)c(OS(=O)(=O)[O-])c5)NC(=O)[C@@H]5C[C@@H](O)CN5C(=O)[C@H]([C@@H](C)O)NC4=O)cc3)no2)cc1.[Na+]` [Amorphous solid, Sodium 5-[(1S,2S)-2-[(3S,6S,9S,11R,15S,18S,20R,21R,24S,25S,26S)-3-[(R)-2-carbamoyl-1-hydroxyethyl]-11,20,21,25-tetrahydroxy-15-[(R)-1-hydroxyethyl]-26-methyl-2,5,8,14,17,23-hexaoxo-18-[4-[5-(4-pentoxyphenyl)isoxazol-3-yl]benzoylamino]-1,4,7,13,16,22-hexaazatricyclo[22.3.0.0^9,13]heptacosan-6-yl]-1,2-dihydroxyethyl]-2-hydroxy phenyl sulfate., reference compound] (X1-[Orn(4R-OH,5R-OH)]T[Hyp][hTyr(3S-OH,4S-OH,3'-OSO3H)][Gln(3R-OH)][Pro(3S-OH,4S-Me)]; lactam 1-C): 99.38% and 89.27%.
